Legend:
hPPARα = biological target: T1, hPPARα (Homo sapiens, UniProt Q07869); assay: Gal4-hPPARα chimera transactivation in COS-7 cells (luciferase); assay type: cell-based; conditions: induction factor standardised to an internal reference, read-out: % hGal4-PPAR transactivation (10 μM) alpha
T1 construct: fragments of DNA amplified by PCR corresponding to the DEF domains of the human PPARα, PPARγ PPARδ nuclear receptors; expressed in transfected cells; host or cells: COS-7 (monkey kidney fibroblast line)
T1 sequence (Q07869 239-466 limits assumed): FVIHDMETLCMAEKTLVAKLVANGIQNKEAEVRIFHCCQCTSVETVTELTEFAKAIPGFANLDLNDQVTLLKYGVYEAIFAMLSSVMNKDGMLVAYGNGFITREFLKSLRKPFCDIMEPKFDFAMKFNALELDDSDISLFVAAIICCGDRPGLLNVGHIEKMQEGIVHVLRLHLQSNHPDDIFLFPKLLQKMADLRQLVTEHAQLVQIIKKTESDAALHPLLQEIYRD
Method in brief: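 COS-7 cells transiently transfected with Gal4-DBD/human PPAR DEF-domain chimeras plus Gal4(RE)_TkpGL3 luciferase reporter (1/10 ratio), then exposed 24 h serum-free to compound at 10 μM. Luciferase induction factor over control, normalised to an internal reference per isoform, expressed as percent activation.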

[1] = system: Male Dunkin Hartley guinea pigs; assay: Lipid-lowering effect in guinea pigs on a cholesterol and fat enriched diet; assay type: in vivo, guinea pig; conditions: 200 mpk for 14 days; high fat diet
Description: The lipid-lowering effect of the inventive compounds was evaluated in vivo in Hartley guinea pigs. In guinea pigs, as in man, a diet enriched in cholesterol and fatty acids induces an increase in the plasmatic levels of lipids. Plasmatic lipid levels (cholesterol and triglycerides) after 14 days treatment were measured and compared to the levels observed for non-treated animals (controls).
Male Dunkin Hartley guinea pigs (Harlan, Gannat, France) aged 5-6 weeks at the start of the experiment were put in groups of 6 animals selected such that the distribution of their body weight and of their plasmatic lipid levels determined before the experiment were uniform. The guinea pigs were given a diet containing 0.2% cholesterol and 14% fats (Research Diets Inc.-USA). They were kept in a 12 hour/12 hour light/dark cycle at a constant temperature of 20±3° C. and had free access to water and food. The amount of food eaten and the increase in weight were recorded. The compounds tested were suspended in an aqueous carboxymethylcellulose solution (Sigma C4888) at 1% containing 0.1% Tween80 (Sigma P8074) and administered daily by intragastric gavage for 14 days at a dose of 200 mg/kg/day. […]
The plasmatic concentrations of the lipids (total cholesterol and triglycerides) were measured by enzymatic titrations (bioMérieux-Lyon-France) according to the supplier's recommendations.

Male Sprague-Dawley rats = assay: Glycemia and insulinemia after oral administration in fasted rats; assay type: in vivo, rat; conditions: oral, fasted rat
Description: In normal animals (as in man), the consequence of the administration of insulinotropic compounds is a significant increase in the plasmatic level of insulin. This induced hyperinsulinemia induces a reduction in glycemia. This example studies the evolution of glycemia and of insulinemia following oral administration of the inventive compounds in rats: the insulinotropic action of the compounds in vivo should induce a significant decrease of glycemia.
Male Sprague-Dawley rats (300-320 g) (CERJ—Le Genest St Isle-France) were used in order to carry out this experiment. The rats were fed with a standard diet of granular material; they had free access to food and drink and were kept in individual, ventilated cages in a 12 hr/12 hr light/dark rhythm. The animals were deprived of food for 16 hours prior to the experiment.
The compound was suspended in an aqueous carboxymethylcellulose solution (Sigma C4888) at 1% containing 0.1% Tween80 (Sigma P8074). The animals of the control group received the vehicle alone. The treated animals received a single administration of the compound (the suspension was administered by gavage at the rate of 10 ml/kg). Each group was made up of 11 animals. A 1st blood sample was taken by puncturing the retro-orbital sinus of the animals under volatile isoflurane anaesthesia: this sample makes up the initial time of the experiment. The substance or the vehicle were immediately administered to the animals by gavage, and blood samples were taken over time.
The animals' glycemia was measured in real time using a glucometer (Glucotrend2-Roche Diagnostic-France). The insulinemias were measured using an ELISA kit (Insulin Elisa Kit—Crystal Chem. USA). The method used was of the ELISA type: plasmatic insulin was specifically bound to anti-insulin monoclonal antibodies immobilised on the microtitration plate; simultaneously, an anti-insulin polyclonal guinea pig antibody was added to the reaction. The revelation of the reaction was guaranteed by an antibody coupled to peroxidase. These antibodies bind specifically to the guinea pig's immunoglobulins. The production of oxidised chromogen causes an increase in absorbance in proportion to the quantity of insulin present in the sample.

activation at 10 µM (hPPARα): 42%
SMILES: CCCCC(NC(=O)Cc1ccc(OC(C)(C)C(=O)NS(C)(=O)=O)cc1)c1ccccc1N1CCCCC1 (centres unmarked) [Compound 52, N-[methylsulfonyl]-2-[4-[1-(1-(2-(1-piperidinyl)phenyl)pentyl)aminocarbonylmethyl]phenoxy]-2-methylpropanamide]
Cholesterol plasmatic levels, lower than controls [1]: approximately 45%
Triglycerides plasmatic levels, lower than controls [1]: approximately 22%
decrease in glycemia between T=0 and T=120 min (Male Sprague-Dawley rats; 50 mpk): no measurable effect
decrease in glycemia between T=0 and T=120 min (Male Sprague-Dawley rats; 500 mpk): 19%

From patent publication US20060079696A1, “Substituted compounds derived from N-(benzyl)phenylacetamide, preparation and uses” (GENFIT, priority 2004, published 2006)
